Reference: patent US10144732B2 (BIOGEN MA INC., priority 2014, dated 2018)
pIC50: −log10 of the molar value. Values joined by “and” are separate entries in the source; they are usually repeats but may differ in a detail not shown here. Identical values can stand only once.

These molecules were tested against T1, Human ATX protein (Homo sapiens, UniProt Q13822) (assay: ATX biochemical assay (FRET, FS-3 substrate)). Settings: FRET assay, FS-3 2 μM, ATX 1.0 μg/mL, 30 minutes preincubation, 2 hours reaction at room temperature; read-out: IC50.
T1 construct: made in house
Outline: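 In-house human ATX (1.0 μg/mL final) was preincubated with compound for 30 min at room temperature in Tris buffer pH 7.4 with 1 mg/mL fatty acid free-BSA. FS-3 substrate (2 μM final) was then hydrolysed for 2 hours at room temperature, protected from light, and read as fluorescence at ex 485/em 538 nm.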

SMILES	pIC50
O=C(C[C@H]1CC[C@H](C(=O)O)CC1)N1CCc2c(C3CC3)nn(Cc3ccc(F)cc3)c2C1 [Example 5-38, trans-4-(2-(3-Cyclopropyl-1-(4-fluorobenzyl)-4,5-dihydro-1H-pyrazolo[3,4-c]pyridin-6(7H)-yl)-2-oxoethyl)cyclohexanecarboxylic acid]	≥ 7.00
O=C(C[C@H]1CC[C@H](C(=O)O)CC1)N1CCc2c(-c3ccccc3)nn(Cc3ccc(F)cc3)c2C1 [Example 5-39, trans-4-(2-(1-(4-Fluorobenzyl)-3-phenyl-4,5-dihydro-1H-pyrazolo[3,4-c]pyridin-6(7H)-yl)-2-oxoethyl)cyclohexanecarboxylic acid]	≥ 7.00
O=C(C[C@H]1CC[C@H](C(=O)O)CC1)N1CCc2c(-c3cccnc3)nn(Cc3ccc(F)cc3)c2C1 [Example 5-40, trans-4-(2-(1-(4-Fluorobenzyl)-3-(pyridin-3-yl)-4,5-dihydro-1H-pyrazolo[3,4-c]pyridin-6(7H)-yl)-2-oxoethyl)cyclohexanecarboxylic acid]	≥ 7.00
CCOc1nn(Cc2ccc(F)cc2)c2c1CCN(C(=O)C[C@H]1CC[C@H](C(=O)O)CC1)C2 [Example 5-42, trans-4-(2-(3-Ethoxy-1-(4-fluorobenzyl)-4,5-dihydro-1H-pyrazolo[3,4-c]pyridin-6(7H)-yl)-2-oxoethyl)cyclohexanecarboxylic acid]	≥ 7.00
CN(C)c1nn(Cc2ccc(F)cc2)c2c1CCN(C(=O)C[C@H]1CC[C@H](C(=O)O)CC1)C2 [Example 5-43, trans-4-(2-(3-(Dimethylamino)-1-(4-fluorobenzyl)-4,5-dihydro-1H-pyrazolo[3,4-c]pyridin-6 (7H)-yl)-2-oxoethyl)cyclohexanecarboxylic acid]	≥ 7.00
O=C(C[C@H]1CC[C@H](C(=O)O)CC1)N1CCc2c(CO)nn(Cc3ccc(F)cc3)c2C1 [Example 5-45, trans-4-(2-(1-(4-Fluorobenzyl)-3-(hydroxymethyl)-4,5-dihydro-1H-pyrazolo[3,4-c]pyridin-6(7H)-yl)-2-oxoethyl)cyclohexanecarboxylic acid]	≥ 7.00
N#Cc1nn(Cc2ccc(F)cc2)c2c1CCN(C(=O)C[C@H]1CC[C@H](C(=O)O)CC1)C2 [Example 5-46, trans-4-(2-(3-Cyano-1-(4-fluorobenzyl)-4,5-dihydro-1H-pyrazolo[3,4-c]pyridin-6(7H)-yl)-2-oxoethyl)cyclohexanecarboxylic acid]	≥ 7.00
NC(=O)c1nn(Cc2ccc(F)cc2)c2c1CCN(C(=O)C[C@H]1CC[C@H](C(=O)O)CC1)C2 [Example 5-47, trans-4-(2-(3-Carbamoyl-1-(4-fluorobenzyl)-4,5-dihydro-1H-pyrazolo[3,4-c]pyridin-6(7H)-yl)-2-oxoethyl)cyclohexanecarboxylic acid]	6.30 to 6.60
O=C(O)C12CCC(C(=O)N3CCc4c(C(F)(F)F)nn(Cc5ccc(F)cc5)c4C3)(CC1)C2 [Example 5-50, 4-(1-(4-Fluorobenzyl)-3-(trifluoromethyl)-4,5,6,7-tetrahydro-1H-pyrazolo[3,4-c]pyridine-6-carbonyl)bicyclo[2.2.1]heptane-1-carboxylic acid]	≥ 7.00
O=C(O)C12CCC(C(=O)N3CCc4c(C(F)(F)F)nn(Cc5ccc(Cl)cc5F)c4C3)(CC1)C2 [Example 5-51]	≥ 7.00
O=C(CC12CCC(C(=O)O)(CC1)C2)N1CCc2c(C(F)(F)F)nn(Cc3ccc(Cl)cc3F)c2C1 [Example 5-52, 4-(2-(1-(4-Chloro-2-fluorobenzyl)-3-(trifluoromethyl)-4,5-dihydro-1H-pyrazolo[3,4-c]pyridin-6(7H)-yl)-2-oxoethyl)bicyclo[2.2.1]heptane-1-carboxylic acid]	≥ 7.00
O=C(CC12CCC(C(=O)O)(CC1)C2)N1CCc2c(C(F)(F)F)nn(Cc3ccc(F)cc3)c2C1 [Example 5-53, 4-(2-(1-(4-Fluorobenzyl)-3-(trifluoromethyl)-4,5-dihydro-1H-pyrazolo[3,4-c]pyridin-6(7H)-yl)-2-oxoethyl)bicyclo[2.2.1]heptane-1-carboxylic acid]	≥ 7.00

Continued, values first:

pIC50	SMILES
6.60 to 7.00	O=C(C[C@H]1CC[C@H](C(=O)O)CC1)N1CCc2c(C(F)(F)F)nn(Cc3ccccn3)c2C1 [Example 5-23, trans-4-(2-Oxo-2-(1-(pyridin-2-ylmethyl)-3-(trifluoromethyl)-4,5-dihydro-1H-pyrazolo[3,4-c]pyridin-6(7H)-yl)ethyl)cyclohexanecarboxylic acid]
≥ 7.00	O=C(C[C@H]1CC[C@H](C(=O)O)CC1)N1CCc2c(C(F)(F)F)nn(Cc3ccncc3)c2C1 [Example 5-24, trans-4-(2-Oxo-2-(1-(pyridin-4-ylmethyl)-3-(trifluoromethyl)-4,5-dihydro-1H-pyrazolo[3,4-c]pyridin-6(7H)-yl)ethyl)cyclohexanecarboxylic acid]
≥ 7.00	O=C(C[C@H]1CC[C@@H](C(=O)O)CC1)N1CCc2c(C(F)(F)F)nn(Cc3ccc(Cl)s3)c2C1 [Example 5-25, cis-4-(2-(1-((5-Chlorothiophen-2-yl)methyl)-3-(trifluoromethyl)-4,5-dihydro-1H-pyrazolo[3,4-c]pyridin-6(7H)-yl)-2-oxoethyl)cyclohexanecarboxylic acid]
≥ 7.00	O=C(C[C@H]1CC[C@H](C(=O)O)CC1)N1CCc2c(C(F)(F)F)nn(Cc3cccs3)c2C1 [Example 5-26, trans-4-(2-Oxo-2-(1-(thiophen-2-ylmethyl)-3-(trifluoromethyl)-4,5-dihydro-1H-pyrazolo[3,4-c]pyridin-6(7H)-yl)ethyl)cyclohexanecarboxylic acid]
≥ 7.00	O=C(C[C@H]1CC[C@H](C(=O)O)CC1)N1CCc2c(C(F)(F)F)nn(Cc3ccsc3)c2C1 [Example 5-27, trans-4-(2-Oxo-2-(1-(thiophen-3-ylmethyl)-3-(trifluoromethyl)-4,5-dihydro-1H-pyrazolo[3,4-c]pyridin-6(7H)-yl)ethyl)cyclohexanecarboxylic acid]
≥ 7.00	O=C(C[C@H]1CC[C@H](C(=O)O)CC1)N1CCc2c(C(F)(F)F)nn(Cc3cncs3)c2C1 [Example 5-28, trans-4-(2-Oxo-2-(1-(thiazol-5-ylmethyl)-3-(trifluoromethyl)-4,5-dihydro-1H-pyrazolo[3,4-c]pyridin-6(7H)-yl)ethyl)cyclohexanecarboxylic acid]
< 6.30 and ≥ 5.00	O=C(C[C@H]1CC[C@H](C(=O)O)CC1)N1CCc2c(C(F)(F)F)nn(Cc3cncnc3)c2C1 [Example 5-29, trans-4-(2-Oxo-2-(1-(pyrimidin-5-ylmethyl)-3-(trifluoromethyl)-4,5-dihydro-1H-pyrazolo[3,4-c]pyridin-6(7H)-yl)ethyl)cyclohexanecarboxylic acid]
≥ 7.00	O=C(C[C@H]1CC[C@H](C(=O)O)CC1)N1CCc2c(C(F)(F)F)nn(Cc3ccc(F)cc3F)c2C1 [Example 5-30, trans-4-(2-(1-(2,4-Difluorobenzyl)-3-(trifluoromethyl)-4,5-dihydro-1H-pyrazolo[3,4-c]pyridin-6(7H)-yl)-2-oxoethyl)cyclohexanecarboxylic acid]
≥ 7.00	O=C(C[C@H]1CC[C@H](C(=O)O)CC1)N1CCc2c(C(F)(F)F)nn(Cc3ccc(F)c(F)c3)c2C1 [Example 5-31, trans-4-(2-(1-(3,4-Difluorobenzyl)-3-(trifluoromethyl)-4,5-dihydro-1H-pyrazolo[3,4-c]pyridin-6(7H)-yl)-2-oxoethyl)cyclohexanecarboxylic acid]
≥ 7.00	O=C(C[C@H]1CC[C@H](C(=O)O)CC1)N1CCc2c(C(F)(F)F)nn(Cc3cc(F)c(F)cc3F)c2C1 [Example 5-32, trans-4-(2-(1-(2,4,5-Trifluorobenzyl)-3-(trifluoromethyl)-4,5-dihydro-1H-pyrazolo[3,4-c]pyridin-6(7H)-yl)-2-oxoethyl)cyclohexanecarboxylic acid]
≥ 7.00	O=C(C[C@H]1CC[C@H](C(=O)O)CC1)N1CCc2c(C(F)(F)F)nn(Cc3cc(F)c(F)c(F)c3)c2C1 [Example 5-33, trans-4-(2-(1-(3,4,5-Trifluorobenzyl)-3-(trifluoromethyl)-4,5-dihydro-1H-pyrazolo[3,4-c]pyridin-6(7H)-yl)-2-oxoethyl)cyclohexanecarboxylic acid]
≥ 7.00	O=C(C[C@H]1CC[C@@H](C(=O)O)CC1)N1CCc2c(C(F)(F)F)nn(Cc3ccc(F)cc3F)c2C1 [Example 5-34, cis-4-(2-(1-(2,4-Difluorobenzyl)-3-(trifluoromethyl)-4,5-dihydro-1H-pyrazolo[3,4-c]pyridin-6(7H)-yl)-2-oxoethyl)cyclohexanecarboxylic acid]
≥ 7.00	CC1CCC(Cn2nc(C(F)(F)F)c3c2CN(C(=O)C[C@H]2CC[C@H](C(=O)O)CC2)CC3)CC1 (stereo partly drawn) [Example 5-37, trans-4-(2-(1-((4-Methylcyclohexyl)methyl)-3-(trifluoromethyl)-4,5-dihydro-1H-pyrazolo[3,4-c]pyridin-6(7H)-yl)-2-oxoethyl)cyclohexanecarboxylic acid]
≥ 7.00	O=C(C[C@H]1CC[C@H](C(=O)O)CC1)N1CCc2c(C(F)F)nn(Cc3ccc(F)cc3)c2C1 [Example 5-44, trans-4-(2-(3-(Difluoromethyl)-1-(4-fluorobenzyl)-4,5-dihydro-1H-pyrazolo[3,4-c]pyridin-6(7H)-yl)-2-oxoethyl)cyclohexanecarboxylic acid]
≥ 7.00	O=C(O)C[C@H]1CC[C@H](CC(=O)N2CCc3c(C(F)(F)F)nn(Cc4ccc(F)cc4)c3C2)CC1 [Example 5-48, 2-(trans-4-(2-(1-(4-Fluorobenzyl)-3-(trifluoromethyl)-4,5-dihydro-1H-pyrazolo[3,4-c]pyridin-6(7H)-yl)-2-oxoethyl)cyclohexyl)acetic acid]
≥ 7.00	O=C(O)C[C@H]1CC[C@@H](CC(=O)N2CCc3c(C(F)(F)F)nn(Cc4ccc(F)cc4)c3C2)CC1 [Example 5-49, 2-(cis-4-(2-(1-(4-Fluorobenzyl)-3-(trifluoromethyl)-4,5-dihydro1H-pyrazolo[3,4-c]pyridin-6(7H)-yl)-2-oxoethyl)cyclohexyl)acetic acid]
